What was measured:
relapsed SCLC = conditions: single-agent, relapsed SCLC patients, KEYNOTE-158; cited from earlier work
platinum-resistant SCLC = conditions: patients with platinum-resistant SCLC; cited from earlier work
SCLC cell lines = experiment: Cisplatin CellTiter-Glo cell viability, IC50 compared between SCLC subtypes; type: cell-based
Procedure: Drug response data. With the exception of cisplatin (Allison Stewart et al., 2017; Gay et al., 2019), drug response data included publicly available data sets (Polley et al., 2016). For cisplatin, cell lines were plated at 2,000 cells per well in 96-well plates 24 hours prior to treatment with drug using standard cell culture conditions. Each line was treated, in triplicate, with cisplatin at starting concentration of 10 μmon followed by 1:3 serial dilutions and DMSO-only control. Following 120-hour incubations, cell viability was assessed using CellTiter-Glo Luminescent Cell Viability Assay (Promega). IC50 values were estimated using software program drexplorer with fitting of multiple dose-response models and selection of best model using the residual standard error.
While there are biological differences between each subtype, it not known to what extent these differences yield distinct responses to anti-cancer therapies. To investigate subtype-specific vulnerabilities, SCLC cell line in vitro drug response data for over 500 drugs were used (Gay, 2019; Polley et al., 2016). […] For each subtype, a drug or drug class that worked especially well was identified, often accompanied by differential expression of the drug target or putative predictive biomarker.

[1] = system: MDA-SC53 and MDA-SC68 CDX models; experiment: Cisplatin treatment of CTC-derived xenograft (CDX) models; type: in vivo, mice
From the text: Circulating-tumor cell derived xenograft model generation. Patients diagnosed with SCLC at the University of Texas MD Anderson Cancer Center were selected on the basis of extensive-stage disease irrespective of age, gender or other clinical criteria. These patients underwent informed consent to Institutional Review Board (IRB)-approved protocol LAB10-0442 (“Evaluation of blood-based test for the detection of circulating tumor cells and circulating proteins and microRNAs and molecular analysis for polymorphisms and mutations”) and blood was collected. Technical details are as previously described (Stewart et al., 2020b). One vial of blood was collected for isolation and banking of plasma and peripheral blood mononuclear cells for use as a normal control. […] Mice were monitored for formation of a flank tumor and were euthanized when tumor burden reached 1000-1500 mm^3. […]
Single-cell RNAseq. […] Cells were then stained for anti-human HLA A647 (Biolegend 311414), Calcein AM (C3100MP) and DAPI (Lifetech D1306, 1 μg/mL) and sorted by Fluorescence-Activated Cell sorting (FACS) to select only live, human cells for downstream single cell transcriptomic analyses. Sorted cells were washed once with 0.04% BSA in PBS and counted on Countess II automated cell counter (ThermoFisher). […]

DLL3 = biological target: T1, DLL3 (Homo sapiens, UniProt Q9NYJ7); conditions: cited from earlier work
T1 construct: host or cells: SCLC tumours of patients in the clinical trial (endogenous DLL3)
T1 sequence (Q9NYJ7 27-618): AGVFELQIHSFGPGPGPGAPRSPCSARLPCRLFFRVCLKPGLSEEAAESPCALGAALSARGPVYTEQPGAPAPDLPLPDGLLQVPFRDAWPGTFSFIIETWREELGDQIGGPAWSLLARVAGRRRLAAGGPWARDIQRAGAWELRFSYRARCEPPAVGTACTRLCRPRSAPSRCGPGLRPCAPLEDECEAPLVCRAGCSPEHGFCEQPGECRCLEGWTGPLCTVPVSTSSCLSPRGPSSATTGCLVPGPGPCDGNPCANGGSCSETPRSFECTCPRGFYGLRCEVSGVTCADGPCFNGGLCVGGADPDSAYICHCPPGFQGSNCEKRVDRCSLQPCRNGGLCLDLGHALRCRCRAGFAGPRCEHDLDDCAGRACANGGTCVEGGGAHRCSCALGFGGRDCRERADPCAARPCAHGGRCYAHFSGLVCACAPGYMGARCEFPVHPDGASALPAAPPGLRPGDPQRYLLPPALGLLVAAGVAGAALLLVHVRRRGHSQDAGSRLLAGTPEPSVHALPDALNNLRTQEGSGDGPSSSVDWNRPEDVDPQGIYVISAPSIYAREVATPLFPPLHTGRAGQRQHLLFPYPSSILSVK

Which response rate (relapsed SCLC) does the source give for “pembrolizumab: anti-PD-1 antibody described in WO2009/114335” here?
The response rate was 19%.

With “nivolumab: anti-PD-1 antibody described in WO2006/121168” as the molecule, how does the “overall survival benefit versus chemotherapy” value (platinum-resistant SCLC) read?
Its value is “preferential OS benefit”.

With `N.N.[Cl][Pt][Cl]` [cisplatin] as the molecule, how does the “cisplatin sensitivity of SCLC-A models” value (SCLC cell lines; SCLC-A) read?
Its value is “range of sensitivities”.

And the “cisplatin sensitivity of SCLC-I models” value (SCLC cell lines; SCLC-I)?
The value was “resistant”.

And the “cisplatin sensitivity of SCLC-N models” value (SCLC cell lines; SCLC-N)?
The value was “resistant”.

What about the “cisplatin sensitivity of SCLC-P models” value (SCLC cell lines; SCLC-P, mean IC50 versus other subtypes, trend) of the same molecule?
The value was “most sensitive”.

What about the “response of CDX model to cisplatin” value ([1]; MDA-SC68rel model, relapsed after in vivo cisplatin treatment) of the same molecule?
The value was “cisplatin-resistant”.

And the “response of CDX model to cisplatin” value ([1]; treatment-naive MDA-SC68 parental model)?
Its value is “cisplatin-sensitive”.

B1: rovalpituzumab tesirine: ADC targeting the inhibitory Notch ligand Delta-like ligand 3 (DLL3) (conjugate, chains of the INN, looked up)
VH: QVQLVQSGAEVKKPGASVKVSCKASGYTFTNYGMNWVRQAPGQGLEWMGWINTYTGEPTYADDFKGRVTMTTDTSTSTAYMELRSLRSDDTAVYYCARIGDSSPSDYWGQGTLVTVSS
VL: EIVMTQSPATLSVSPGERATLSCKASQSVSNDVVWYQQKPGQAPRLLIYYASNRYTGIPARFSGSGSGTEFTLTISSLQSEDFAVYYCQQDYTSPWTFGQGTKLEIK
modifications: tesirine
Which clinical activity (DLL3; Phase II clinical trial for SCLC) does the source give for B1 here?
Its clinical activity is “only modest activity”.

And the toxicity (DLL3; Phase II clinical trial, of the conjugated cytotoxic molecule)?
Its toxicity is “unexpected toxicity”.

From US12637720B2, “Molecular subtyping of small cell lung cancer to predict therapeutic responses” (Board of Regents, The University of Texas System, priority 2019, dated 2026)
